Ends that are not written are not given here.
Assays:
Assay type in all cases: cell-based
[1] = test system: VEGF; assay: VEGF RT-PCR; settings: human hair follicle dermal papilla cells, 24 hours, RT-PCR (mRNA); FIG. 6
Protocol: (§1) Human hair follicle dermal papilla cells were seeded at a density of 4×10^5 cells/well on 6-well plate, followed by incubation overnight. After changing into serum-free medium, the cells were treated with the peptides, followed by incubation for 24 hours, and then the wells were harvested to isolate RNA. After RNA quantification, cDNA synthesis was conducted using the cDNA synthesis kit (Intron, Korea), followed by PCR using PCR premix (Intron, Korea) and respective KGF and VEGF primers, and then electrophoresis was performed on 5% agarose gel to compare the mRNA expression levels of the growth factors in sample treatment conditions.

[2] = test system: GSK3β; assay: β-Catenin activity test: GSK3β phosphorylation; settings: human hair follicle dermal papilla cells, 15 and 30 minutes, western blotting; FIGS. 2a, 2b
[3] = test system: TGF-β1; assay: TGF-β1 RT-PCR; settings: human hair follicle dermal papilla cells, 24 hours, RT-PCR (mRNA); FIG. 7
Protocol: as §1, with “TGF-β1” for “respective KGF and VEGF”, “level” for “levels”, “factor” for “factors”

[4] = test system: β-catenin; assay: β-Catenin activity test (western blotting); settings: human hair follicle dermal papilla cells, 15 and 30 minutes, nuclear and cytoplasmic proteins, FIGS. 2a, 2b
Protocol: Human hair follicle dermal papilla cells were seeded at a density of 4×10^5 cells/well on 6-well plates, followed by incubation overnight. After changing into serum-free medium, the cells were treated with the peptides, followed by incubation for 15 and 30 minutes, and then the wells were harvested to isolate nuclear and cytoplasmic proteins. Western blotting was performed using β-catenin (Santa Cruz Biotechnology, USA) to compare β-catenin expression patterns.

[5] = test system: Human hair follicle dermal papilla cells; assay: DPC proliferation assay (MTT); settings: serum-free medium, 3 days incubation, absorbance 550 nm, FIGS. 1a, 1b
Protocol: Human hair follicle dermal papilla cells were seeded at a density of 2×10^3 cells/well on 96-well plates, followed by incubation overnight. After changing into serum-free medium, the cells were treated with the peptides, followed by incubation for 3 days, and then the wells were treated with 4 mg/ml MTT solution, followed by reaction for 4 hours. The resulting formazan was solubilized with DNSO, and then the absorbance was measured at 550 nm using a microplate reader.

[6] = test system: MITF; assay: Melanogenesis-related protein western blotting: MITF; settings: B16F10 cell line, 72-hour incubation, FIG. 11
Protocol: (§2) Melanocytes (B16F10 cell line) were incubated on 6-well culture plates for 24 hours, and were treated with the peptides of the present invention with different concentrations. After 72-hour incubation, the cells were lysed, and the cells were subjected to western blotting using specific antibodies (two types, both from Santa Cruz Biotechnology, USA) to investigate the expression of MITF and tyrosinase, which are factors involved in melanogenesis.

[7] = test system: KGF; assay: KGF RT-PCR; settings: human hair follicle dermal papilla cells, 24 hours, RT-PCR (mRNA); FIG. 6
Protocol: as §1

[8] = test system: PI3K; assay: PI3K western blotting; settings: human hair follicle dermal papilla cells, 15 and 30 minutes, FIGS. 3a, 3b
Protocol: (§3) Human hair follicle dermal papilla cells were seeded at a density of 4×10^5 cells/well on 6-well plates, followed by incubation overnight. After changing into serum-free medium, the cells were treated with the peptides, followed by incubation for 15 and 30 minutes, and then the wells were harvested to prepare the cell lysate. Western blotting was performed using PI3K antibodies (Santa Cruz Biotechnology, USA) and phospho-ERK antibody (Cell Signaling Technology, USA) to compare protein expression patterns.

[9] = test system: MITF; assay: Melanogenesis-related gene RT-PCR: MITF; settings: B16F10 cell line, 72 hours, FIG. 10
Protocol: (§4) Melanocytes (B16F10 cell line) were incubated on 6-well culture plates for 24 hours, and were treated with the peptides of the present invention with different concentrations. After RNA was extracted from the cells incubated for 72 hours, cDNA was prepared. PCR was performed by using respective primers specific to MITF and tyrosinase, which are involved in melanogenesis, and the expression changes of the respective genes were observed.

[10] = test system: MSX2; assay: MSX2 RT-PCR; settings: human hair follicle dermal papilla cells, 24 hours, RT-PCR (mRNA); FIG. 8
Protocol: as §1, with “MSX2” for “respective KGF and VEGF”, “level” for “levels”, “factor” for “factors”

[11] = test system: tyrosinase; assay: Melanogenesis-related protein western blotting: tyrosinase; settings: B16F10 cell line, 72-hour incubation, FIG. 11
Protocol: as §2

[12] = test system: ERK; assay: p-ERK western blotting; settings: human hair follicle dermal papilla cells, 15 and 30 minutes, FIGS. 3a, 3b
Protocol: as §3

[13] = test system: Bax; assay: Bax western blotting; settings: human hair follicle dermal papilla cells, 24 hours, FIGS. 4a, 4b
Protocol: (§5) Human hair follicle dermal papilla cells were seeded at a density of 4×10^5 cells/well on 6-well plate, followed by incubation overnight. After changing into serum-free medium, the cells were treated with the peptides, followed by incubation for 24 hours, and then the wells were harvested to prepare cell lysate. Western blotting was performed using Bcl-2 and Bax antibodies (Santa Cruz Biotechnology, USA) to compare protein expression patterns.

[14] = test system: TRP1; assay: Melanogenesis-related gene RT-PCR: TRP1; settings: B16F10 cell line, 72 hours, FIG. 10 legend
[15] = test system: melanocytes (B16F10 cell line); assay: Melanin measurement assay; settings: 72 hours, intracellular melanin, absorbance 490 nm, FIGS. 9a, 9b
Protocol: After melanocytes (B16F10 cell line) in 6-well plates were cultured in an incubator at 37° C. for 24 hours, the medium of each plate was removed and exchanged with a fresh medium, followed by treatment with the present peptide with different concentrations. After the incubation for 72 hours, the culture medium was removed, and the cells were taken off and then transferred into 1.5-ml tubes, followed by centrifugation at 13,000 rpm for 3 minutes. The supernatant was removed, and cell pellets were collected to observe melanin. Then, 150 μl of 2 M NaOH was added to the cell pellets to lyse intracellular melanin at 60° C. for 30 minutes. Then, 100 μl of the supernatant obtained from the lysis was added into each well of 96-well plates, and the absorbance was measured at 490 nm.

[16] = test system: keratin-14; assay: Keratin-14 RT-PCR; settings: human hair follicle dermal papilla cells, 24 hours, FIGS. 5a, 5b
Protocol: Human hair follicle dermal papilla cells were seeded at a density of 5×10^5 cells/well on 6-well plates, followed by incubation overnight. After changing into serum-free medium, the cells were treated with the peptides, followed by incubation for 24 hours, and then the wells were harvested to isolate RNA. After RNA quantification, cDNA synthesis was conducted using the cDNA synthesis kit (Intron, Korea), followed by PCR using PCR premix (Intron, Korea) and keratin-14 primers, and then electrophoresis was performed on 5% agarose gel to compare the mRNA expression level of the growth factor in respective sample treatment conditions.

[17] = test system: tyrosinase; assay: Melanogenesis-related gene RT-PCR: tyrosinase; settings: B16F10 cell line, 72 hours, FIG. 10
Protocol: as §4

[18] = test system: Bcl-2; assay: Bcl-2 western blotting; settings: human hair follicle dermal papilla cells, 24 hours, FIGS. 4a, 4b
Protocol: as §5

Row | Sequence | expression of VEGF [1] | phosphorylation level of GSK3β [2] | expression of TGF-β1 [3] | activity of β-catenin [4] | growth of human hair follicle dermal papilla cells [5] | protein expression of MITF transcription factor [6] | expression of KGF [7] | expression of PI3K [8] | mRNA expression of MITF transcriptional factor [9] | expression of MSX2 [10] | protein expression of tyrosinase enzyme [11] | phosphorylation of ERK [12] | expression of the apoptosis-related protein Bax [13] | mRNA expression of TRP1 [14] | melanogenesis in melanocytes [15] | mRNA expression of keratin-14 [16] | mRNA expression of tyrosinase enzyme [17] | expression of the anti-apoptotic protein Bcl-2 [18]
1 | ACTSSQLRSC (cysteine pairing not given here) [SEQ ID NO: 1] | increased | increased | increased | increased | stimulated in a dose-dependent manner | increased | increased | increased | increased | increased | increased | increased | decreased | increases | increased | increased | increased | increased
2 | KYLLVHRPYYRR [SEQ ID NO: 2] |  | increased |  | increased | stimulated in a dose-dependent manner |  |  | increased |  |  |  | increased | decreased |  | increased | increased |  | increased

From patent US10344061B2, “Peptide exhibiting hair growth promoting activity and/or melanin production promoting activity and use thereof” (CAREGEN CO., LTD., priority 2016, dated 2019)
